Reference: US7214688B2 (priority 2000, dated 2007)

Target: α7 nAChR subtype (Rattus norvegicus, UniProt Q05941)
Type: binding
Details: read-out: KD of radioligand (saturation curves, one site model)

α7 nAChR subtype, sequence (Q05941 23-502 limits assumed): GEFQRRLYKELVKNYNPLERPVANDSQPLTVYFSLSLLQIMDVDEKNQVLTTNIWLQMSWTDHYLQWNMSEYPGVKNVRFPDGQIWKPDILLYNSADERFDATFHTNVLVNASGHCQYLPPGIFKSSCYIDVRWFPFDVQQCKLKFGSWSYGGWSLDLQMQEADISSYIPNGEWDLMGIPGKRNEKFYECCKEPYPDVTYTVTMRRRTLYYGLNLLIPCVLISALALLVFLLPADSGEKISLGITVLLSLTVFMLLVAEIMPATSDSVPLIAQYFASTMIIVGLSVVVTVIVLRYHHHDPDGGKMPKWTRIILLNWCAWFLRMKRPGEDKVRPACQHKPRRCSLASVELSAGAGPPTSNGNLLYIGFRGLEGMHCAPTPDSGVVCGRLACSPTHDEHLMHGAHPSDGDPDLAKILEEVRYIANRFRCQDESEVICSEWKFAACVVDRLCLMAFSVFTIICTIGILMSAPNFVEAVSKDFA

## 125I-α-Bungarotoxin [Example 125I-α-BTX]
  Kd: 1.67 nM
